What was measured:
Assay type in all cases: in vivo, human
[1] = system: patients who experience first psychotic episode; experiment: CANTAB Intra-extra dimensional set-shifts (IED), adjuvant study; conditions: atypical antipsychotic drug+minocycline 200 mg/day vs +placebo; time x group p<0.0001
Method: The study was carried out in patients who experience first psychotic episode, and has followed the patient for a total duration of 6 months. As the study examines Minocycline as an adjuvant drug, the sample includes patients receiving one of the following atypical anti-psychotic drugs: Risperdal, Zyprexa, Geodon, Seroquel, and Leponex. […] In addition, the subjects were assessed by a battery of computerized neuropsychological tests (CANTAB—Cambridge Neuropsychological Test Automated Battery), measuring attention, memory, and planning. Minocycline was given as an add-on therapy. Prior to randomization into minocycline/placebo adjuvant treatment, a preliminary (lead-in phase) screening phase of placebo treatment was undertaken: Placebo was given as an adjuvant to all patients for two weeks. […] Randomization was then carried out by the principal investigator. […] Clinical status was evaluated by the aforementioned scales at the onset of the study, every week for the first 6 weeks, and then once a month for the rest of the study period. Cognitive capabilities were assessed by the neuropsychological battery of tests according to the following schedule: upon initiation of the study (referred to as visit 1 in FIGS. 5-8), 3 months (referred to as visit 2 in FIGS. 5-8), and 6 months (referred to as visit 3 in FIGS. 5-8) after the start of the study. […]

[2] = system: patients who experience first psychotic episode; experiment: Calgary Depression Scale for Schizophrenia, adjuvant study; conditions: atypical antipsychotic drug+minocycline 200 mg/day vs +placebo; p=0.099, n.s.
Method: The study was carried out in patients who experience first psychotic episode, and has followed the patient for a total duration of 6 months. As the study examines Minocycline as an adjuvant drug, the sample includes patients receiving one of the following atypical anti-psychotic drugs: Risperdal, Zyprexa, Geodon, Seroquel, and Leponex. […] Initial evaluation included the following clinical measures: • SCID (for reliability of diagnosis) • CGI (Clinical Global Impression) • PANSS (Positive and Negative Syndrome Scale for Schizophrenia) • SANS (Scale for the Assessment of Negative Symptoms) • Calgary Depression Scale for Schizophrenia • GAF • GRAF • Insight and Treatment Attitudes Questionnaire • QLS (Quality of Life Scale) • Multinomah Community Ability Scale • Extrapyramidal Side Effects Scale. Minocycline was given as an add-on therapy. […] Clinical status was evaluated by the aforementioned scales at the onset of the study, every week for the first 6 weeks, and then once a month for the rest of the study period. Cognitive capabilities were assessed by the neuropsychological battery of tests according to the following schedule: upon initiation of the study (referred to as visit 1 in FIGS. 5-8), 3 months (referred to as visit 2 in FIGS. 5-8), and 6 months (referred to as visit 3 in FIGS. 5-8) after the start of the study. […]

[3] = system: patients who experience first psychotic episode; experiment: CANTAB Spatial Recognition Memory (SRM), adjuvant study; conditions: atypical antipsychotic drug+minocycline 200 mg/day vs +placebo; time x group p<0.01
Method: The study was carried out in patients who experience first psychotic episode, and has followed the patient for a total duration of 6 months. As the study examines Minocycline as an adjuvant drug, the sample includes patients receiving one of the following atypical anti-psychotic drugs: Risperdal, Zyprexa, Geodon, Seroquel, and Leponex. […] In addition, the subjects were assessed by a battery of computerized neuropsychological tests (CANTAB—Cambridge Neuropsychological Test Automated Battery), measuring attention, memory, and planning. Memory was tested using spatial and pattern recognition and spatial span tasks of the CANTAB. Minocycline was given as an add-on therapy. Prior to randomization into minocycline/placebo adjuvant treatment, a preliminary (lead-in phase) screening phase of placebo treatment was undertaken: Placebo was given as an adjuvant to all patients for two weeks. […] Clinical status was evaluated by the aforementioned scales at the onset of the study, every week for the first 6 weeks, and then once a month for the rest of the study period. Cognitive capabilities were assessed by the neuropsychological battery of tests according to the following schedule: upon initiation of the study (referred to as visit 1 in FIGS. 5-8), 3 months (referred to as visit 2 in FIGS. 5-8), and 6 months (referred to as visit 3 in FIGS. 5-8) after the start of the study. […]

[4] = Body weight change 12 weeks after start of treatment, adjuvant study; conditions: atypical antipsychotic drug+minocycline 200 mg/day
Method: The study was carried out in patients who experience first psychotic episode, and has followed the patient for a total duration of 6 months. As the study examines Minocycline as an adjuvant drug, the sample includes patients receiving one of the following atypical anti-psychotic drugs: Risperdal, Zyprexa, Geodon, Seroquel, and Leponex. […] Minocycline was given as an add-on therapy. Prior to randomization into minocycline/placebo adjuvant treatment, a preliminary (lead-in phase) screening phase of placebo treatment was undertaken: Placebo was given as an adjuvant to all patients for two weeks. […] Randomization was then carried out by the principal investigator. The raters and evaluators of the subjects participating in the study were blind to the randomization. […] The body weight of the patients was measured at the start of the study and then 12 weeks later (FIG. 12).

## CN(C)c1ccc(O)c2c1C[C@H]1C[C@H]3[C@H](N(C)C)C(O)=C(C(N)=O)C(=O)[C@@]3(O)C(O)=C1C2=O [minocycline]
[1]
  IED measures (number of stages completed, total errors adjusted, Pre-ED errors, EDS errors): improved significantly more than the placebo group on all the IED measures except for the Pre-ED errors measure
[2]
  Total Calgary Score: tended to reach greater improvement
[3]
  SRM percent of correct responses: kept relatively steady scores
[4]
  proportion of patients who gained weight: 31%
  proportion of patients who lost weight: 46%

From patent US20130190275A1, “COMBINED THERAPIES OF ANTIPSYCHOTIC DRUGS AND TETRACYCLINES IN THE TREATMENT OF PSYCHIATRIC DISORDERS” (MOR RESEARCH APPLICATIONS LTD., priority 2006, published 2013)
